# In patent publication US9995734B2, “Human T cell line assay for evaluating the immunologic identity of glatiramer acetate preparations” (Mylan Inc., priority 2013, dated 2018):
# Values joined by “and” are separate entries in the source; they are usually repeats but may differ in a detail not shown here. Identical values can stand only once.
# Columns and labels:
# [1] = system: Donor 3 COP T-Cell Lines; assay: ATP proliferation assay (CellTiter Glo), Donor 3 COP T-cell lines, incl. reactivity to non-canonical GA peptides; assay type: cell-based, human; details: for Non-Canonical Peptide Non-Reactivity: proliferation <2 times no antigen control
# [2] = system: Donor 3 GMA T-Cell Lines; assay: ATP proliferation assay (CellTiter Glo), Donor 3 GMA T-cell lines, incl. reactivity to non-canonical GA peptides; assay type: cell-based, human; details: for proliferation response to non-canonical GA peptides: 0, 1, 3, 10, 30 μg/mL; for Non-Canonical Peptide Non-Reactivity: proliferation <2 times no antigen control; for Non-Canonical Peptide Reactivity: at least one proliferation value >=2 times no antigen control
substance,measurement,setting,value
poly (Glu-Ala-Tyr; 6:3:1) [GAT 631],Non-Canonical Peptide Non-Reactivity,[1]; 165-B6C,GAT 631
same,Non-Canonical Peptide Non-Reactivity,[1]; 165-C4C,GAT 631
same,Non-Canonical Peptide Non-Reactivity,[1]; 165-C7C,GAT 631
same,proliferation response to non-canonical peptides,"[1]; 165-E3C, separate experiment",did not react
same,Non-Canonical Peptide Non-Reactivity,[1]; 165-F3C,GAT 631
same,Non-Canonical Peptide Non-Reactivity,[1]; 165-F6C,GAT 631
same,Non-Canonical Peptide Non-Reactivity,[1]; 165-U3C (so in the source),GAT 631
same,Nonreactive T-Cell Line,"[1]; Donor 3 COP lines, stimulation with the non-canonical GA peptide",165-B6C (Donor 3) and 165-C4C (Donor 3) and 165-C7C (Donor 3) and 165-E3C (Donor 3) and 165-F3C (Donor 3) and 165-F6C (Donor 3)
same,"Proliferation (luminescent ATP assay), Mean","[1]; T-cell line 165-C4C, 1 μg/mL antigen, Day 66 of culture, 0 μg/mL 1881",2489
same,"Proliferation (luminescent ATP assay), Mean","[1]; T-cell line 165-C4C, 3 μg/mL antigen, Day 66 of culture, 0 μg/mL 1881",2687
same,"Proliferation (luminescent ATP assay), Mean","[1]; T-cell line 165-C4C, 10 μg/mL antigen, Day 66 of culture, 0 μg/mL 1881",2682
same,"Proliferation (luminescent ATP assay), Mean","[1]; T-cell line 165-C7C, 1.25 μg/mL antigen, autologous B-LCL",232 RLU
same,"Proliferation (luminescent ATP assay), Mean","[1]; T-cell line 165-C7C, 2.5 μg/mL antigen, autologous B-LCL",204 RLU
same,"Proliferation (luminescent ATP assay), Mean","[1]; T-cell line 165-C7C, 5 μg/mL antigen, autologous B-LCL",200 RLU
same,"Proliferation (luminescent ATP assay), Mean","[1]; T-cell line 165-C7C, 10 μg/mL antigen, autologous B-LCL",184 RLU
same,"Proliferation (luminescent ATP assay), Mean","[1]; T-cell line 165-F3C, 1 μg/mL antigen, Day 77 of culture, 0 μg/mL 1563",2389
same,"Proliferation (luminescent ATP assay), Mean","[1]; T-cell line 165-F3C, 3 μg/mL antigen, Day 77 of culture, 0 μg/mL 1563",2249
same,"Proliferation (luminescent ATP assay), Mean","[1]; T-cell line 165-F3C, 10 μg/mL antigen, Day 77 of culture, 0 μg/mL 1563",2391
same,"Proliferation (luminescent ATP assay), Mean","[1]; T-cell line 165-F6C, 1.25 μg/mL antigen, Day 76 of culture, No Antigen value 517",516
same,"Proliferation (luminescent ATP assay), Mean","[1]; T-cell line 165-F6C, 2.5 μg/mL antigen, Day 76 of culture, No Antigen value 517",479
same,"Proliferation (luminescent ATP assay), Mean","[1]; T-cell line 165-F6C, 5 μg/mL antigen, Day 76 of culture, No Antigen value 517",463
same,"Proliferation (luminescent ATP assay), Mean","[1]; T-cell line 165-F6C, 10 μg/mL antigen, Day 76 of culture, No Antigen value 517",449
same,proliferation response to non-canonical GA peptides,"[2]; 165-B5G and 165-E7G, Day 81",responded
same,Non-Canonical Peptide Non-Reactivity,[2]; 165-B5G,GAT 631
same,Non-Canonical Peptide Non-Reactivity,[2]; 165-C5G,GAT 631
same,Non-Canonical Peptide Reactivity,[2]; 165-E7G,GAT 631
same,Non-Canonical Peptide Non-Reactivity,[2]; 165-E9G,GAT 631
same,Non-Canonical Peptide Non-Reactivity,[2]; 165-F5G,GAT 631
same,Non-Canonical Peptide Non-Reactivity,[2]; 165-F10G,GAT 631
same,proliferation response to non-canonical GA peptides,"[2]; 165-H11G, Day 50",responded
same,Non-Canonical Peptide Reactivity,[2]; 165-H11G,GAT 631
same,Reactive T-Cell Line,"[2]; Donor 3 GMA lines, at least a 50% increase in proliferation relative to a control after stimulation with the non-canonical GA peptide",165-H11G (Donor 3)
same,Nonreactive T-Cell Line,"[2]; Donor 3 GMA lines, stimulation with the non-canonical GA peptide",165-B5G (Donor 3) and 165-C5G (Donor 3) and 165-C8G (Donor 3) and 165-E7G (Donor 3) and 165-E9G (Donor 3) and 165-F5G (Donor 3) and 165-F10G (Donor 3)
same,"Proliferation (luminescent ATP assay), Mean","[2]; T-cell line 165-05G, 1 μg/mL antigen, Day 50 of culturing, No Antigen Value 2149",2004 RLU
same,"Proliferation (luminescent ATP assay), Mean","[2]; T-cell line 165-05G, 3 μg/mL antigen, Day 50 of culturing, No Antigen Value 2149",2207 RLU
same,"Proliferation (luminescent ATP assay), Mean","[2]; T-cell line 165-05G, 10 μg/mL antigen, Day 50 of culturing, No Antigen Value 2149",1928 RLU
same,"Proliferation (luminescent ATP assay), Mean","[2]; T-cell line 165-05G, 30 μg/mL antigen, Day 50 of culturing, No Antigen Value 2149",1829 RLU
same,"Proliferation (luminescent ATP assay), Mean","[2]; T-cell line 165-B5G, 1 μg/mL antigen, Day 81 of culturing, No Antigen Value 2432",4666 RLU
same,"Proliferation (luminescent ATP assay), Mean","[2]; T-cell line 165-B5G, 1.25 μg/mL antigen, Day 55 of culturing, No Antigen Value 846",1133 RLU
same,"Proliferation (luminescent ATP assay), Mean","[2]; T-cell line 165-B5G, 2.5 μg/mL antigen, Day 55 of culturing, No Antigen Value 846",1288 RLU
same,"Proliferation (luminescent ATP assay), Mean","[2]; T-cell line 165-B5G, 3 μg/mL antigen, Day 81 of culturing, No Antigen Value 2432",5536 RLU
same,"Proliferation (luminescent ATP assay), Mean","[2]; T-cell line 165-B5G, 5 μg/mL antigen, Day 55 of culturing, No Antigen Value 846",1511 RLU
same,"Proliferation (luminescent ATP assay), Mean","[2]; T-cell line 165-B5G, 10 μg/mL antigen, Day 55 of culturing, No Antigen Value 846",1645 RLU
same,"Proliferation (luminescent ATP assay), Mean","[2]; T-cell line 165-B5G, 10 μg/mL antigen, Day 81 of culturing, No Antigen Value 2432",4997 RLU
same,"Proliferation (luminescent ATP assay), Mean","[2]; T-cell line 165-B5G, 30 μg/mL antigen, Day 81 of culturing, No Antigen Value 2432",3637 RLU
same,"Proliferation (luminescent ATP assay), Mean","[2]; T-cell line 165-C5G, 1.25 μg/mL antigen, autologous B-LCL",435 RLU
same,"Proliferation (luminescent ATP assay), Mean","[2]; T-cell line 165-C5G, 2.5 μg/mL antigen, autologous B-LCL",465 RLU
same,"Proliferation (luminescent ATP assay), Mean","[2]; T-cell line 165-C5G, 5 μg/mL antigen, autologous B-LCL",504 RLU
same,"Proliferation (luminescent ATP assay), Mean","[2]; T-cell line 165-C5G, 10 μg/mL antigen, autologous B-LCL",423 RLU
same,"Proliferation (luminescent ATP assay), Mean","[2]; T-cell line 165-E7G, 1 μg/mL antigen, Day 81 of culturing, No Antigen Value 2145",4043 RLU
same,"Proliferation (luminescent ATP assay), Mean","[2]; T-cell line 165-E7G, 1.25 μg/mL antigen, autologous B-LCL, Day 55",2629 RLU
same,"Proliferation (luminescent ATP assay), Mean","[2]; T-cell line 165-E7G, 2.5 μg/mL antigen, autologous B-LCL, Day 55",2827 RLU
same,"Proliferation (luminescent ATP assay), Mean","[2]; T-cell line 165-E7G, 3 μg/mL antigen, Day 81 of culturing, No Antigen Value 2145",6457 RLU
same,"Proliferation (luminescent ATP assay), Mean","[2]; T-cell line 165-E7G, 5 μg/mL antigen, autologous B-LCL, Day 55",2950 RLU
